According to the Kinase Knowledgebase extract (Sharma et al. 2016):

Key:
PIK3CA (human) [1] = biological target: PIK3CA (human) (UniProt P42336); assay: Enzyme Assay
PIK3CD (Human) [2] = biological target: PIK3CD (Human) (UniProt O00329); assay: Enzyme Assay
PIK3CG (human) [3] = biological target: PIK3CG (human) (UniProt P48736); assay: Enzyme Assay
PIK3CA (human) [4] = biological target: PIK3CA (human) (UniProt P42336); assay: Cell-Based Assay; details: rat-1
PIK3CD (Human) [5] = biological target: PIK3CD (Human) (UniProt O00329); assay: Cell-Based Assay; details: rat-1
PIK3CG (human) [6] = biological target: PIK3CG (human) (UniProt P48736); assay: Cell-Based Assay; details: u937

Chain of PIK3CG (human) (P48736 whole entry, looked up): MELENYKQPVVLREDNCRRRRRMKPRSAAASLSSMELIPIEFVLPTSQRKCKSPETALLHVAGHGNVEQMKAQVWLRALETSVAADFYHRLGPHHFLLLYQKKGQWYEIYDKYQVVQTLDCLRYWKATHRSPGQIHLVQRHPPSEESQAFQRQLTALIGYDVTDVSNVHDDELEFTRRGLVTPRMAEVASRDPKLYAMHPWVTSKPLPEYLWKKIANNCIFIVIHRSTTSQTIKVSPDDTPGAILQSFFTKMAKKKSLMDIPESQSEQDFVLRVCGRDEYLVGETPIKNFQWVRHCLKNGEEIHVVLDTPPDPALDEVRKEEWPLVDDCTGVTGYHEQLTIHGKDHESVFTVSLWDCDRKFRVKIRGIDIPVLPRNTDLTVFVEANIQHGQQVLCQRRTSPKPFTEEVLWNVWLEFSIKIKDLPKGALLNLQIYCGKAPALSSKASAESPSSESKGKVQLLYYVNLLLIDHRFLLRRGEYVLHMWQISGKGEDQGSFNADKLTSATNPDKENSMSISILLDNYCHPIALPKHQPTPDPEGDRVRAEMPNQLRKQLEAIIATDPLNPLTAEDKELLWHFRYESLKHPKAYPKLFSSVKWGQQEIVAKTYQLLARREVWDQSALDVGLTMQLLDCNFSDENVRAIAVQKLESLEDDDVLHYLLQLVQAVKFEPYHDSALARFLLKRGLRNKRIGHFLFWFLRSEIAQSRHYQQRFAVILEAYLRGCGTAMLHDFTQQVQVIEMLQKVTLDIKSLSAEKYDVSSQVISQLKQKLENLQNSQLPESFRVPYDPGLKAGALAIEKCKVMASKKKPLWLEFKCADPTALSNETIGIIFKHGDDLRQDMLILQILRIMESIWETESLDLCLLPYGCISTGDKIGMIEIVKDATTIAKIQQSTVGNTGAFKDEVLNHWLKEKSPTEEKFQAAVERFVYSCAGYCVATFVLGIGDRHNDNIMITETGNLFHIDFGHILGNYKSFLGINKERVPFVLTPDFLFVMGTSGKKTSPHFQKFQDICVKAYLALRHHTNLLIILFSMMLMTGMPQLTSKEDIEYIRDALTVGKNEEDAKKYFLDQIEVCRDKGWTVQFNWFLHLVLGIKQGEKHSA
Chain of PIK3CA (human) (P42336 whole entry, looked up): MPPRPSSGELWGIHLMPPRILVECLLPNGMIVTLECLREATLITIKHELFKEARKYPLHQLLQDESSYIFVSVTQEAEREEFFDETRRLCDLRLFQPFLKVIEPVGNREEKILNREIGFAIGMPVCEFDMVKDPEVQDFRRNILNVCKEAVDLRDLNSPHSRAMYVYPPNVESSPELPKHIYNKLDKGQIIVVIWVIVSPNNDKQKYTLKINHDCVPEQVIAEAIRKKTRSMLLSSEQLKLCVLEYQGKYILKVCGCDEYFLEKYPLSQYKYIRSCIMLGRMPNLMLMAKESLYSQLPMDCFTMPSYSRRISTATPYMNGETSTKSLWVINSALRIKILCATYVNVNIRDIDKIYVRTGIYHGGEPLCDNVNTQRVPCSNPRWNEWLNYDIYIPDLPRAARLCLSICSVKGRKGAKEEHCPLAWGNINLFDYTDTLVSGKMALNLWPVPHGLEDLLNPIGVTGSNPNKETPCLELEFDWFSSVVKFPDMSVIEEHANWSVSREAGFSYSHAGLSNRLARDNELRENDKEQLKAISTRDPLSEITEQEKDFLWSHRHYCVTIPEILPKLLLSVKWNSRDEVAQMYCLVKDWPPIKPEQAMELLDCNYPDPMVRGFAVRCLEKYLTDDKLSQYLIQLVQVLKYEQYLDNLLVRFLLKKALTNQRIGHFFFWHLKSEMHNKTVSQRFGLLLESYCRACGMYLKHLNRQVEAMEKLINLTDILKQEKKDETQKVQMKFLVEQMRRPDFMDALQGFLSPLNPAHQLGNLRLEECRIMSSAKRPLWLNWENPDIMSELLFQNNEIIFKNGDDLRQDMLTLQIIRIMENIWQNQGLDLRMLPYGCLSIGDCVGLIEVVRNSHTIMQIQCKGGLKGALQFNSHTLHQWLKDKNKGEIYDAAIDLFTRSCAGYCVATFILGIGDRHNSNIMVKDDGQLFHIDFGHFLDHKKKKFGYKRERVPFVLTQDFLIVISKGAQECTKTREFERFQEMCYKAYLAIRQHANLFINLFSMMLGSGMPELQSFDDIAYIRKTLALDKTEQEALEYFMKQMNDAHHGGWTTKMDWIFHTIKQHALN
Chain of PIK3CD (Human) (O00329 whole entry, looked up): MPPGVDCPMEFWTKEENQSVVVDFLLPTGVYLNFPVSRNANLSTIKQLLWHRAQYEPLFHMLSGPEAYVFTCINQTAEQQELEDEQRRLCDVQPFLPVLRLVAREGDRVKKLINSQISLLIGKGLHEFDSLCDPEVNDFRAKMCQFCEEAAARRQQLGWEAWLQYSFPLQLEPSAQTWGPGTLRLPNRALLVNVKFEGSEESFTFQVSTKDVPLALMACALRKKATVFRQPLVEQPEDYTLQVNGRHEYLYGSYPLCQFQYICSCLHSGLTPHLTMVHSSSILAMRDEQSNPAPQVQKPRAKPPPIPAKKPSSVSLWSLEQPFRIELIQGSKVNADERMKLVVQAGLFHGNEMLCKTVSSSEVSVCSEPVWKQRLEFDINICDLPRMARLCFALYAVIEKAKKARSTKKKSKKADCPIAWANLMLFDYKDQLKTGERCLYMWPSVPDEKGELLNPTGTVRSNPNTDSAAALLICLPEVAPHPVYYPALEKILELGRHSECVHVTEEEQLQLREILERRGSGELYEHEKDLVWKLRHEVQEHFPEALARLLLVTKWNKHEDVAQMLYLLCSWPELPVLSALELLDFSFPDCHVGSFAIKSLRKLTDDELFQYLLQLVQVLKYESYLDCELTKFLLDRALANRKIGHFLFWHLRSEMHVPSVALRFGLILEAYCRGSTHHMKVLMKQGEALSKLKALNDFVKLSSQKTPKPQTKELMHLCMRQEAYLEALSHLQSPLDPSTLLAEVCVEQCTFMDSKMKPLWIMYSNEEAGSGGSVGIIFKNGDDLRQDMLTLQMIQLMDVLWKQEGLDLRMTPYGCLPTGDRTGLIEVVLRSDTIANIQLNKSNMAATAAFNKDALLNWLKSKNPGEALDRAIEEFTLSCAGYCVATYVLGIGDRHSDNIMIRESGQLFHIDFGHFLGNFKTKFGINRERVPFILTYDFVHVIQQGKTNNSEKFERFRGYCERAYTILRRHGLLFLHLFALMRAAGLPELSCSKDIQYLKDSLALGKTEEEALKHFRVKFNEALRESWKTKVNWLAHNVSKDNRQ

Row | Structure (SMILES) | IC50 (PIK3CA (human) [1]) | IC50 (PIK3CD (Human) [2]) | IC50 (PIK3CG (human) [3]) | IC50 (PIK3CA (human) [4]) | IC50 (PIK3CD (Human) [5]) | IC50 (PIK3CG (human) [6])
1 | N#Cc1c(N)ncnc1N1CCC[C@H]1c1nc2cccc(Cl)c2c(=O)n1C1CCCCC1 | > 10000 nM | 16 nM | 1100 nM | > 10000 nM | 13 nM | 
2 | COc1ccc(-n2c([C@@H]3CCCN3c3nc(N)nc4[nH]cnc34)nc3cccc(Cl)c3c2=O)cn1 | 8400 nM | 270 nM | 220 nM | > 10000 nM | 651 nM | 
3 | N#Cc1c(N)ncnc1N1CCC[C@H]1c1nc2cc(F)cc(F)c2c(=O)n1-c1ccccc1 | > 10000 nM | 43 nM | > 10000 nM | > 10000 nM | 292 nM | 
4 | CC1(n2c([C@@H]3CCCN3c3nc(N)nc4[nH]cnc34)nc3cccc(Cl)c3c2=O)CC1 | 1030 nM | 26 nM | 58 nM | 3300 nM | 32 nM | 
5 | O=c1c2c(Cl)cccc2nc([C@@H]2CCCN2c2ncnc3[nH]cnc23)n1N1CCOCC1 | 2800 nM | 35 nM | 140 nM | > 10000 nM | 80 nM | 
6 | Cc1nc(N)nc(N2CCC[C@H]2c2nc3ccc(F)c(C(F)(F)F)c3c(=O)n2-c2ccccc2)c1C#N | 390 nM | 18 nM | 30 nM |  |  | 522 nM
7 | Cc1nc(N)nc(N2CCC[C@H]2c2nc3cccc(Cl)c3c(=O)n2-c2ccccc2)c1C#N | 72 nM | 7 nM | 22 nM | 1110 nM | 5 nM | 
8 | COc1ccc(-n2c([C@@H]3CCCN3c3ncnc4[nH]cnc34)nc3cccc(Cl)c3c2=O)cn1 | > 10000 nM | 660 nM | 1900 nM | > 10000 nM | 1400 nM | 
9 | CO[C@H]1C[C@@H](c2nc3cccc(C(F)(F)F)c3c(=O)n2-c2ccccc2)N(c2ncnc(N)c2C#N)C1 | 7600 nM | 18 nM | 460 nM |  | 35 nM | 671 nM
10 | CO[C@H]1C[C@@H](c2nc3cccc(Cl)c3c(=O)n2N2CCOCC2)N(c2ncnc(N)c2C#N)C1 | 4000 nM | 66 nM | 380 nM | > 10000 nM | 32 nM | 
11 | O=c1c2c(Cl)cccc2nc([C@@H]2CCCN2c2ncnc3[nH]cnc23)n1N1CCCCC1 | 1800 nM | 10 nM | 200 nM | > 10000 nM | 198 nM | 
12 | Cc1ccc(-n2c([C@@H]3CSCN3c3ncnc4[nH]cnc34)nc3cccc(Cl)c3c2=O)s1 | > 10000 nM | 140 nM | 820 nM | > 10000 nM | 509 nM | 
13 | N#Cc1cnc(N)nc1N1CCC[C@H]1c1nc2cccc(C(F)(F)F)c2c(=O)n1-c1ccccc1 | 3100 nM | 23 nM | 230 nM | > 10000 nM | < 3 nM | 
14 | CO[C@H]1C[C@@H](c2nc3cccc(Cl)c3c(=O)n2C2CC2)N(c2nc(N)nc(C)c2C#N)C1 | 1320 nM | 104 nM | 220 nM | 3540 nM | 73 nM | 
15 | Cc1nc(N)nc(N2CCC[C@H]2c2nc3ccc(F)c(F)c3c(=O)n2-c2ccccc2)c1C#N | 600 nM | 14 nM | 41 nM | > 10000 nM | < 3 nM | 
16 | Nc1nc(N2CCC[C@H]2c2nc3cccc(Cl)c3c(=O)n2N2CCCCC2)c2nc[nH]c2n1 | 2300 nM | 12 nM | 130 nM | 8580 nM | 291 nM | 
17 | COC(=O)N1CC[C@@H](n2c([C@@H]3CCCN3c3ncnc4[nH]cnc34)nc3cccc(Cl)c3c2=O)C1 | > 10000 nM | 200 nM | > 10000 nM | > 10000 nM | 2350 nM | 
18 | CN(C)n1c([C@@H]2CCCN2c2nc(N)nc3[nH]cnc23)nc2cccc(Cl)c2c1=O | 1200 nM | 110 nM | 780 nM | 2860 nM | 128 nM | 
19 | O=c1c2c(F)cc(F)cc2nc([C@@H]2CCCN2c2ncnc3[nH]cnc23)n1-c1ccccc1 | > 10000 nM | 120 nM | > 10000 nM | > 10000 nM | 733 nM | 
20 | O=c1c2c(Cl)cccc2nc([C@@H]2CCCN2c2ncnc3[nH]cnc23)n1-c1cccnc1 | 3300 nM | 20 nM | 170 nM | > 10000 nM | 84 nM | 
21 | CN(C)n1c([C@@H]2CCCN2c2ncnc(N)c2C#N)nc2cccc(Cl)c2c1=O | 1100 nM | 21 nM | 190 nM | 3530 nM | 26 nM | 
22 | Cc1ccccc1-n1c([C@@H]2CSCN2c2ncnc(N)c2C#N)nc2cccc(Cl)c2c1=O | 6820 nM | 11 nM | 148 nM | 4470 nM | 38 nM | 
23 | Nc1nc(N2CCC[C@H]2c2nc3cccc(Cl)c3c(=O)n2C2CCCCC2)c2nc[nH]c2n1 | 1780 nM | 24 nM | 96 nM | > 10000 nM | 149 nM | 
